{
  "source": "patent US8828678B2",
  "about": "“Self-immolative probes for enzyme activity detection” (Enzo Life Sciences, Inc., priority 2010, dated 2014)",
  "key": {"[1]": {"tested_on": "Jurkat cells", "test": "Detection of hypoxia using flow cytometry", "type": "cell-based, human", "conditions": "5 μM CD-1, 1 μM CD-6, versus vehicle-treated loaded cells", "protocol": "HeLa and U-2 OS cells were cultured as described in Example 7. Human Jurkat T-cell leukemia cells (the A3 subclone) was obtained from ATCC and routinely cultured in RPMI-1640 medium (ATCC) supplemented with 10% fetal bovine serum (ATCC) and 100 U/ml penicillin+100 μg/ml streptomycin (Sigma-Aldrich). Cell cultures were maintained in an incubator at 37° C., with 5% CO2 atmosphere. CD-1, CD-4 and CD-6 self-immolative hypoxia probes were prepared as described in Example 8. All hypoxia inducers stocks were prepared as described in Example 7.\nThe day before the experiment, HeLa and U-2 OS cells were seeded in 6-well tissue culture plates at a density 5×10^5 cells/well. […] Post-treatment, the adherent cells (HeLa and U-2 OS) were collected by trypsinization, re-suspended in 0.5 mL of fresh PBS and analyzed using flow cytometry. Jurkat cells were analyzed without washing.\nFlow cytometry experiments were performed using a FACS Calibur benchtop flow cytometer (BD Biosciences) equipped with a blue (488 nm) laser, and the fluorescence was recorded in the FITC (530/30 filter), PE (585/42 filter) and PerCP (670 LP filter) channels. Hypoxic cells were detected by detecting increases in fluorescence. The degree of hypoxia (Khyp) can be quantified by using Kolmogorov-Smirnov statistics (Young, 1977) or the following formula: Khyp=(MFIhyp−MFIcon)/MFIhyp, […]"}, "[2]": {"tested_on": "Jurkat cells", "test": "Combined detection of hypoxia and superoxide in live cells by flow cytometry", "type": "cell-based, human", "conditions": "CD-1 5 μM in combination with superoxide detection reagent, flow cytometry", "protocol": "HeLa, U-2 OS, and Jurkat cell lines were cultured as described in Examples 7 and 9. Stock solutions of the probes and inhibitors were prepared as described in Examples 7 and 10.\nThe day before the experiment, HeLa and U-2 OS cells were seeded in 6-well tissue culture plates at a density of 5×10^5 cells/well. Jurkat cells were collected in logarithmic phase of growth and aliquoted at a density of 5×10^5 cells/sample. On the day of the experiment, the cells were preloaded with either hypoxia or ROS-detecting probes only or with the combination of hypoxia and ROS-detecting probes with compatible spectral characteristics. Samples stained with single hypoxia probes or with two ROS-detecting probes were made to validate data obtained with the combination of hypoxia and redox probes. The probes used in the experiment and their final concentrations in cell culture medium were as follows: CD-1(5 μM) and CD-6 (1 μM), DCFDA, peroxide/peroxynitrite/hydroxyl detection probe and HE, specific superoxide detection reagent (1 μM for both redox probes). Hypoxia was induced in the cells as described in Example 7. Additionally, cells were treated with different general and specific ROS inducers and stained with ROS-detecting probes to control ROS production and staining. Post-treatment, the adherent cells (HeLa and U-2 OS) were collected by trypsinization, re-suspended in 0.5 mL of fresh PBS and analyzed using flow cytometry. Jurkat cells were analyzed without washing. Flow cytometry experiments were performed using an FACS Calibur benchtop flow cytometer (BD Biosciences) equipped with a blue (488 nm) laser, and the fluorescence was recorded in the FITC (530/30 filter), PE (585/42 filter) and PerCP (670 LP filter) channels. Data were collected uncompensated, also compensation corrections were performed using unstained cells, and cells stained with each single dye separately (CD-1, CD-6, DCFDA or HE). To quantify data, quadrant gates were set using untreated samples."}},
  "data": [
    {"smiles": "O=C(Nc1ccc2c(c1)Oc1cc(NC(=O)N3CCOCC3)ccc1C21OC(=O)c2ccccc21)OCc1ccc([N+](=O)[O-])cc1", "note": "(centres unmarked) [CD-1]", "values": [
      {"measurement": "fluorescence in Jurkat cells treated with chemical hypoxia inducers or subjected to anoxia", "setting": "[1]", "value": "fluorescence increase"},
      {"measurement": "population of green positive cells in hypoxia-induced Jurkat samples", "setting": "[2]", "value": "increased population of green positive cells"}
    ]}
  ]
}
